# Values quoted from earlier work, collected in patent US10688072B2, “Misoprostol dispersible tablet” (Azanta Danmark A/S, priority 2014, dated 2020).
# Read-outs that look alike come from different tables or passages of the source.
# Conditions: 400 μg
compound,measurement,setting,value
CCCCC(C)(O)C/C=C/[C@H]1[C@H](O)CC(=O)[C@@H]1CCCCCCC(=O)OC (mixture of isomers) [misoprostol],Peak in plasma concentration,oral administration compared with vaginal,larger peak than vaginal administration
same,Inter-subject variability in % at peak concentration,oral route compared with vaginal,smaller than for vaginal application
same,Peak in plasma concentration,sublingual administration compared with oral and vaginal,larger peak in plasma concentration of misoprostol than oral and vaginal
same,Inter-subject variability in % at peak concentration,sublingual route compared with oral and vaginal,smaller following the sublingual route of administration than for oral and vaginal application
